Experiment [1] concerns the target T1, OPN3 (Mus musculus, UniProt Q9WUK7).
T1 construct: expressed in transfected cells; host or cells: HTLA cells (HEK293 line with tTA-dependent luciferase reporter and beta-arrestin2-TEV fusion)
Put plainly: TANGO assay (beta-arrestin recruitment, luciferase reporter) in HTLA cells, OPN3. In kind it is cell-based. Conditions: 4 hours. An excerpt: (§1) For example, in one implementation the chemosensory opsin activation detection element comprises a TANGO assay (Transcriptional Activation Following Arrestin Translocation), as known in the art, for example, as described by Kroeze et al., 2015. PRESTO-Tango as an open-source resource for interrogation the druggable human GPCRome. Nat Struct Mol Biol 22, 362-369. In the TANGO systems of the invention, a cell is engineered to express a chemosensory opsin in the form of a fusion protein, wherein the opsin fusion protein comprises an optional membrane trafficking signal (e.g. HA), an optional FLAG tag or like epitope to facilitate detection, and a transcriptional activator which induces the expression of a reporter gene, such as luciferase, wherein the transcriptional activator is joined to an intracellular portion of the opsin, for example, the […], by a cleavage sequence. The cells of the TANGO system are further engineered to express a second fusion protein comprising a beta-arrestin fused to a protease, for example, a TEV protease, wherein the protease is capable of cleaving the fusion protein at the cleavage site. The cells of the TANGO system are further engineered to express a reporter protein, e.g. luciferase, under the control of a transcriptional activator, for example, tetracycline-controlled transactivaor (tTA). Ligand binding to the opsin deployed in the TANGO system triggers a conformational change in the opsin that recruits the beta arrestin-protease fusion protein to the opsin, where proximity of the protease induces cleavage of the transcriptional activator, which trafficks to the nucleus and induces the expression of the reporter gene. The TANGO system advantageously allows direct quantification of opsin activation, independent of g protein activity.
(§2) Human transcriptomics data was mined to identify putative taste receptor proteins. […] However, the role of these opsins in taste perception has not been previously explored. TANGO detection elements employing each of these opsins, in both human and mouse isoforms, were created in HTLA cells (a HEK293 cell line stably expressing a tTA-dependent luciferase reporter and a β-arrestin2-TEV fusion gene), based on protocols in Kroeze et al., 2015. PRESTO-Tango as an open-source resource for interrogation of the druggable human GPCRome. Nat Struct Mol Biol 22, 362-369.
(§3) In the TANGO assay, the mouse opsin coding sequence with an N-terminal FLAG tag was synthesized. The construct was cloned into a TANGO vector (Addgene, Waterton MA) at the ClaI site (FLAG::opsin). The HTLA cells were transfected in a 6-well format with LIPOFECTAMINE 2000™ (Thermo Fisher Scientific, Inc, Waltham MA, USA) according to the manufacturer's instructions. 6-8 hours post transfection cells weret split 1:3 and the media was switched to DMEM+ 2.5% fetal bovine serum (Thermo Fisher Scientific Inc., Waltham MA, USA). Cells were allowed to grow for 48 hours before splitting the cells onto poly-L-lysine-coated 96-well clear, flat bottom white polystyrene plates in serum-free media. The next day, chemical solutions diluted in TANGO assay buffer (20 mM HEPES, 1× HBSS, pH 7.40) were added to the cells. After 4 hours, the medium and drug solutions were removed and replaced with […] per well of BRIGHTGLO™ reagent (Promega Corporation, Madison WI) diluted 20-fold with TANGO assay buffer. Plates were incubated for 20 minutes at room temperature in the dark before measuring luminescence with a plate reader (Molecular Devices, iD3). The normalized response was calculated using following formula: RLU (relative luminescence units)=test compound RLU−average vehicle control RLU.

Experiment [2] concerns the target T2, OPN1SW (Mus musculus, UniProt P51491).
T2 construct: expressed in transfected cells; host or cells: HTLA cells (HEK293 line with tTA-dependent luciferase reporter and beta-arrestin2-TEV fusion)
T2 sequence (P51491 1-346): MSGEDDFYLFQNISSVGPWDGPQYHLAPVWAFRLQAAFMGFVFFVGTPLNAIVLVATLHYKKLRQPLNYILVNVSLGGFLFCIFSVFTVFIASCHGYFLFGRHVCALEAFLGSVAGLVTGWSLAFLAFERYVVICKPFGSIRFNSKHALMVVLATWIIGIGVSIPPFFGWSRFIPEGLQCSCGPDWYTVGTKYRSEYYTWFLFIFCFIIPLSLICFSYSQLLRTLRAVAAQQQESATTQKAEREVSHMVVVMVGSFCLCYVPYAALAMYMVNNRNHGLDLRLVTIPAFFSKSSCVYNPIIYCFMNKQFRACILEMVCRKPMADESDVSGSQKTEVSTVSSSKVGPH
The experiment can be described thus: TANGO assay (beta-arrestin recruitment, luciferase reporter) in HTLA cells, OPN1SW. In kind it is cell-based. Conditions: 4 hours.
Source text: as §1, §2, §3

Experiment [3] deals with T3, OPN1SW (Homo sapiens, UniProt P03999).
T3 construct: expressed in transfected cells; host or cells: HEK293T
T3 sequence (P03999 1-345): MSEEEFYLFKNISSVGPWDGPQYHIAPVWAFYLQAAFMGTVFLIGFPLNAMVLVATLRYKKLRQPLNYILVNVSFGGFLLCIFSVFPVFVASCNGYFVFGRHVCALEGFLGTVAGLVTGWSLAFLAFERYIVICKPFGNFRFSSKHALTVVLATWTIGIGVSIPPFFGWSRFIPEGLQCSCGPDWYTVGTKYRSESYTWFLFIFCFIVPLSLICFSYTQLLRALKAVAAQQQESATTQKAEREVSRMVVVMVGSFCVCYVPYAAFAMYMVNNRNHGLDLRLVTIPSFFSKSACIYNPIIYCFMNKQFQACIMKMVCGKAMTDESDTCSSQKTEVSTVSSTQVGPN
Put plainly: Calcium flux GPCR activation assay with Fluo-8 dye, opsin-expressing HEK293T cells, OPN1SW. In kind it is cell-based. Conditions: Fluo-8 calcium flux, data not shown. The protocol: (§4) These foregoing TANTO results were further confirmed using a second, a calcium flux GPCR activation assay employing Fluo-8 dye, as follows. For this intracellular Ca^2+ measurement, opsin-expressing HEK293T cells were seeded onto 96-well plates (4×10^4 cells per well) in 100 μl of culture medium with reduced serum contents (0.5% of FBS) per well and incubated overnight under standard culture conditions. [Ca2+]i level was assessed the next day after stimulation with bitter compounds used at a different concentration with the SCREEN QUEST Fluo-8 No Wash Calcium Assay Kit (AAT Bioquest, Inc., Sunnyvale, CA, USA) according to the supplier's protocol. Calcium flux was monitored simultaneously by the change in fluorescence (Ex/Em=490/520 nm) following stimulation and with respect to the background fluorescence. [Ca^2+]i was monitored for a period of three minutes, starting before the addition of compounds to the wells and continuing during measurement of the fluorescent signal following cells' stimulation. The obtained fluorescence reads were normalized to the results obtained after stimulation of the cells with the compound solvent.

The next experiment relates to OPN3 knockout mice. Put plainly: Mouse brief-access taste assay (lickometer), OPN3 knockout mice compared to wild type. In kind it is in vivo. Conditions: water restricted. The protocol: Knockout mice were obtained for OPN1SW and OPN3. Two independent OPN3 knockout mice lines were tested for reaction to naringin by a mouse taste preference assay. A Lickometer device (MS-160, Di Log Instruments, Inc.,Tallahassee, FL, USA) was used to train mice and then measure their licking responses to different tastants in brief-access trials. On a given trial, each sipper tube was filled with a solution and made available to a mouse via a small port that opened to a metal/plexiglass chamber housing the animal. The mouse chamber of the lickometer was modified for these studies by adding a plexiglass barrier that restricted the free movement of animals to an approximate 10 by 15 cm area facing the fluid access port. A computer running software that communicated with the lickometer recorded tongue contacts with the metal tip of the sipper tube during licking and the time intervals (precision=1 ms) between consecutive licks (inter-lick intervals). The amount of time that the sipper tube was available through the access port could be programmed and was controlled by the opening of a normally closed, computer-actuated shutter. This feature facilitated presentation of solutions to a mouse for only a few seconds to support measurements of brief-access licking behavior. By indexing initial licking responses to stimuli over short periods, brief-access procedures intend to focus on oral sensory influences and avoid any post-ingestive effect. Groups of three to four mice were run in these studies at one time. Groups always included equal numbers of mutant and wild-type mice to control for temporal factors.
Training. Mice were restricted from drinking water for 20-22 hours prior to the onset of training. During training, experimentally naive mice learned to receive fluid in the lickometer over a 3-day period. On the first and second day of training, mice were given 30 minutes free access to a single sipper tube of water to familiarize them with accessing fluid in the lickometer device. Each 30 minute period began when the mouse made its first lick on the sipper tube; mice were allowed 30 minutes to make their first lick. On the third day of training, mice were presented with 10 second presentations (i.e., trials) of water to familiarize them with receiving and consuming fluid under a brief-access procedure in the lickometer. On each trial, the shutter that blocked access to the sipper tube was opened and mice were given 10 seconds to lick, and lick data were recorded by the lickometer computer. […]
Testing. […] For studies, individual Opn3KO, Opn1swKO, Opn4KO, Opn5KO and wild-type mice were evaluated for brief-access licking responses with different agonists. […]

In experiment [4] the target is T4, OPN3 (Homo sapiens, UniProt Q9H1Y3).
T4 construct: expressed in transfected cells; host or cells: HEK293T
T4 sequence (Q9H1Y3 whole entry): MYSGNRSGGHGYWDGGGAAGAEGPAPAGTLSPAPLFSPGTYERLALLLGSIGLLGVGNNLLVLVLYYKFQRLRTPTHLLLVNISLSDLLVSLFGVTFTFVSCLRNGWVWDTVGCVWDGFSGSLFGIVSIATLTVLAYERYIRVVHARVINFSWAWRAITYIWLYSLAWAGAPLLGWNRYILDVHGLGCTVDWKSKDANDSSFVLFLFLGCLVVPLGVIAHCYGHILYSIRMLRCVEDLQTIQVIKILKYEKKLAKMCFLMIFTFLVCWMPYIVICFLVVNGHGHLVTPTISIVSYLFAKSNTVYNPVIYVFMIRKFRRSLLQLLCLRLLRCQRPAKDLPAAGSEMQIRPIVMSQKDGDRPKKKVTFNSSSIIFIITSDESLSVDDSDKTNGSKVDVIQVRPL
Put plainly: Calcium flux GPCR activation assay with Fluo-8 dye, opsin-expressing HEK293T cells, OPN3. In kind it is cell-based. Conditions: Fluo-8 calcium flux, data not shown. The procedure: as §4

“Also recorded” adds a separate entry of the source.

T1 sequence (Q9WUK7 whole entry, the tested form may be a part): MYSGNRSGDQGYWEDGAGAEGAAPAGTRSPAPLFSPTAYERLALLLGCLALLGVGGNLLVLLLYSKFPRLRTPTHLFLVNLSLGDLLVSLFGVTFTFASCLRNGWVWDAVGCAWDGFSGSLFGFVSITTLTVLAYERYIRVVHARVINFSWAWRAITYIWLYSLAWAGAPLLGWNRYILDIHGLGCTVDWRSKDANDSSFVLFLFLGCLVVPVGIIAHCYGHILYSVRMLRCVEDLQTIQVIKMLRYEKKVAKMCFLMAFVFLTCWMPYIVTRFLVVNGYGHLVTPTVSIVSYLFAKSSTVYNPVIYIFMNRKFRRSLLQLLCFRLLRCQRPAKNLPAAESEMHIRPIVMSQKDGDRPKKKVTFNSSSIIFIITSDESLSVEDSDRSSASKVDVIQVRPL

Turning to `O=c1c(O)c(-c2cc(O)c(O)c(O)c2)oc2cc(O)cc(O)c12` [myricetin], the “activation of OPN3, fold-change from baseline luciferase signal vs. log concentration of tastant” value at OPN3 [1] is “activation of OPN3”. For `CC1(C)O[C@H]2CC(=O)OC[C@]23[C@H]2CC[C@@]4(C)[C@H](c5ccoc5)OC(=O)[C@H]5O[C@]54[C@]2(C)C(=O)C[C@@H]13` [limonin], the “activation of OPN1SW, fold-change from baseline luciferase signal vs. log concentration of tastant” value at OPN1SW [2] is listed as “activation of OPN1SW; also recorded: activated”. Moreover, the “activation of calcium dye OPN1SW detection elements” value on OPN1SW [3] was “significantly activated in a concentration dependent manner”.

For the compound `O=C(O[C@@H]1Cc2c(O)cc(O)cc2O[C@@H]1c1cc(O)c(O)c(O)c1)c1cc(O)c(O)c(O)c1` [epigallocatechin gallate], the “activation of OPN3, fold-change from baseline luciferase signal vs. log concentration of tastant” value on OPN3 [1] is recorded as “activation of OPN3”. With `Oc1cc(O)c2c(c1)O[C@H](c1cc(O)c(O)c(O)c1)[C@H](O)C2` [Epigallocatechin], the “activation of OPN3, fold-change from baseline luciferase signal vs. log concentration of tastant” value on OPN3 [1] is “activated OPN3”. For the same compound, in the experiment on OPN3 knockout mice, the “aversion to the bitter flavor (lick ratio), OPN3 knockout mice compared to wild type mice” value is on record as “reduced aversion”.

With `O=c1c(O)c(-c2ccc(O)c(O)c2)oc2cc(O)cc(O)c12` [quercetin], the “activation of OPN3, fold-change from baseline luciferase signal vs. log concentration of tastant” value at OPN3 [1] is on record as “activated OPN3; also recorded: activation of OPN3”. Further, the “aversion to the bitter flavor (lick ratio), OPN3 knockout mice compared to wild type mice” value in the experiment with OPN3 knockout mice is “reduced aversion”. Regarding `OC[C@H]1O[C@@H](Oc2ccccc2)[C@H](O)[C@@H](O)[C@@H]1O` [phe-β-Glu, Phenyl-β-D-glucopyranoside], the “activation of OPN3, fold-change from baseline luciferase signal vs. log concentration of tastant” value was “activated” at OPN3 [1] and “activation of OPN3” at OPN3 [1] (listed as Phenyl-β-D-glucopyranoside). Further, the “activation of calcium dye OPN3 detection elements” value at OPN3 [4] is reported as “significantly activated in a concentration dependent manner”. On to catechin, for which the “activation of OPN3, fold-change from baseline luciferase signal vs. log concentration of tastant” value on OPN3 [1] is “activated OPN3; also recorded: activation of OPN3”. For the same compound, the “aversion to the bitter flavor (lick ratio), OPN3 knockout mice compared to wild type mice” value in the experiment with OPN3 knockout mice is reported as “reduced aversion”.

Take `COc1ccc2c(c1OC)C(=O)O[C@@H]2[C@H]1c2c(cc3c(c2OC)OCO3)CCN1C` [noscapine]: the “activation of OPN3, fold-change from baseline luciferase signal vs. log concentration of tastant” value on OPN3 [1] is “activation of OPN3; also recorded: activated”. Moreover, at OPN3 [4], the “activation of calcium dye OPN3 detection elements” value is “significantly activated in a concentration dependent manner”. For `Cn1c(=O)c2[nH]cnc2n(C)c1=O` [theophylline], the “activation of OPN1SW, fold-change from baseline luciferase signal vs. log concentration of tastant” value on OPN1SW [2] is “activation of OPN1SW; also recorded: activated”. Besides, the “activation of calcium dye OPN1SW detection elements” value at OPN1SW [3] is recorded as “significantly activated in a concentration dependent manner”.

For the compound `OC[C@H]1O[C@@H](Oc2ccc(O)cc2)[C@H](O)[C@@H](O)[C@@H]1O` [arbutin], the “activation of OPN3, fold-change from baseline luciferase signal vs. log concentration of tastant” value at OPN3 [1] was “activation of OPN3; also recorded: activated”. Further, the “activation of calcium dye OPN3 detection elements” value on OPN3 [4] is reported as “significantly activated in a concentration dependent manner”.

Regarding `CC1=CC(=O)[N-]S(=O)(=O)O1.[K+]` [asulfame potassium], the “activation of OPN1SW, fold-change from baseline luciferase signal vs. log concentration of tastant” value on OPN1SW [2] is reported as “activation of OPN1SW”. The “activation of OPN3, fold-change from baseline luciferase signal vs. log concentration of tastant” value on OPN3 [1] was “activation of OPN3”.

Regarding `N#C[C@H](O[C@@H]1O[C@H](CO[C@@H]2O[C@H](CO)[C@@H](O)[C@H](O)[C@H]2O)[C@@H](O)[C@H](O)[C@H]1O)c1ccccc1` [amygdalin], the “activation of OPN3, fold-change from baseline luciferase signal vs. log concentration of tastant” value at OPN3 [1] is on record as “activation of OPN3; also recorded: activated”. For the same compound, the “activation of calcium dye OPN3 detection elements” value at OPN3 [4] was “significantly activated in a concentration dependent manner”.

Values taken from US20240142474A1, “Opsins as Chemosensory Receptors and Related Methods” (The Regents of the University of California, priority 2021, published 2024).
